Assay results from patent US20250144067A1, “PERSONALIZED STARVATION THERAPY FOR CANCER” (Faeth Therapeutics, Inc., priority 2021, published 2025).
Where a name gives a salt, the structure may show the parent alone. Read-outs that look alike come from different tables or passages of the source.

Tests used:
[1] = system: NCI-H292 lung cancer cells; assay: FDA drug screening, complete media vs cholesterol-free media without statin (TABLE 1); assay type: cell-based, human
[2] = system: NCI-H292 lung cancer cells; assay: FDA drug screening, complete media vs cholesterol-free media with simvastatin (TABLE 2); assay type: cell-based, human
[3] = NCI-H292 cells, cholesterol-free media without statin
[4] = NCI-H292 cells, cholesterol-free media with simvastatin 0.04 μM, FDA drug library screen (TABLE 2)
[5] = NCI-H292 cells, complete media, FDA drug library screen (TABLE 2)
[6] = complete media minus cholesterol-free media + simvastatin (0.04 μM), >0 enhanced anti-cancer activity, about 0 neutral, <0 antagonist
[7] = Complete minus Cholesterol-free, >0 enhanced anti-cancer activity, about 0 neutral, <0 antagonist
[8] = NCI-H292 cells, cholesterol-free media without statin, FDA drug library screen
[9] = NCI-H292 cells, complete media, FDA drug library screen
[10] = NCI-H292 cells, FDA library drug in cholesterol-free media with simvastatin 0.04 μM
[11] = NCI-H292 cells, FDA library drug in complete media
[12] = complete media vs cholesterol-free media + simvastatin (0.04 μM), >0 enhanced anti-cancer activity, about 0 neutral, <0 antagonist
[13] = NCI-H292 cells, drug in cholesterol-free media with simvastatin 0.04 μM
[14] = NCI-H292 cells, drug in complete media
[15] = NCI-H292 cells, cholesterol-free media with simvastatin 0.04 μM, cell growth value in FDA drug screen
[16] = NCI-H292 cells, complete media, cell growth value in FDA drug screen
[17] = complete media minus cholesterol-free media + simvastatin, >0 enhanced anti-cancer activity, about 0 neutral, <0 antagonist
[18] = Complete minus Cholesterol-free, greater than 0 enhanced anti-cancer activity, about 0 neutral, below 0 antagonists
[19] = NCI-H292 cells in complete media
[20] = Complete minus Cholesterol-free, […]
[21] = NCI-H292 cells, FDA drug library screen, cholesterol-free media with simvastatin 0.04 μM
[22] = NCI-H292 cells, FDA drug library screen, complete media
[23] = Complete minus Cholesterol-free, greater than 0 enhanced anti-cancer activity, about 0 neutral, below 0 antagonist
[24] = NCI-H292 cells, FDA drug library screen, cholesterol-free media without statin

SMILES: C=CC(=O)N1CCC([C@@H]2CCNc3c(C(N)=O)c(-c4ccc(Oc5ccccc5)cc4)nn32)CC1 [Zanubrutinib]
- Cholesterol-free [1, 3]: 0.7894
- Complete ([1]; NCI-H292 cells, complete media): 0.3496
- Difference ([1]; complete vs cholesterol-free media, greater than 0 enhanced anti-cancer activity, about 0 neutral, below 0 antagonists): −0.44
- Cholesterol-free media + simvastatin (0.04 μM) [2, 4]: 0.7245
- Complete Media [2, 5]: 0.7031
- Difference [2, 6]: −0.02

SMILES: Cc1cn([C@H]2C[C@H](N=[N+]=[N-])[C@@H](CO)O2)c(=O)[nH]c1=O [Zidovudine]
- Difference [1, 7]: −0.01
- Cholesterol-free [1, 8]: 1.211
- Complete [1, 9]: 1.205
- Cholesterol-free media + simvastatin (0.04 μM) [2, 10]: 1.856
- Complete Media [2, 11]: 1.268
- Difference [2, 12]: −0.59

SMILES: CC(c1cc2ccccc2s1)N(O)C(N)=O (stereo not shown) [Zileuton]
- Difference [1, 7]: −0.21
- Cholesterol-free [1, 3]: 1.451
- Complete ([1]; NCI-H292 cells, complete media): 1.238
- Cholesterol-free media + simvastatin (0.04 μM) [2, 13]: 1.302
- Complete Media [2, 14]: 1.066
- Difference [2, 12]: −0.24

SMILES: [O-][n+]1ccccc1[S-].[O-][n+]1ccccc1[S-].[Zn+2] [Zinc Pyrithione]
- Cholesterol-free [1]: 0.0139
- Complete [1]: 0.007475
- Difference [1]: −0.01
- Cholesterol-free media + simvastatin (0.04 μM) [2]: 0.004251
- Complete Media [2]: −0.04835
- Difference [2]: −0.05

SMILES: O=C1Cc2cc(CCN3CCN(c4nsc5ccccc45)CC3)c(Cl)cc2N1 [Ziprasidone (hydrochloride monohydrate)]
- Cholesterol-free [1, 8]: 0.5848
- Complete [1, 9]: 0.8552
- Difference ([1]; complete vs cholesterol-free media, >0 enhanced anti-cancer activity, about 0 neutral, <0 antagonist): 0.27
- Cholesterol-free media + simvastatin (0.04 μM) [2, 15]: 0.5734
- Complete Media [2, 16]: 0.6228
- Difference [2, 17]: 0.05

SMILES: O=C1Cc2cc(CCN3CCN(c4nsc5ccccc45)CC3)c(Cl)cc2N1 [Ziprasidone]
- Difference [1, 18]: −0.52
- Cholesterol-free ([1]; NCI-H292 cells in cholesterol-free media without statin): 1.408
- Complete [1, 19]: 0.89
- Cholesterol-free media + simvastatin (0.04 μM) [2, 15]: 0.9155
- Complete Media [2, 16]: 0.9832
- Difference [2, 17]: 0.07

SMILES: C[C@H](CSC(=O)c1ccccc1)C(=O)N1C[C@@H](Sc2ccccc2)C[C@H]1C(=O)O [Zofenopril (calcium)]
- Difference [1, 20]: −0.03
- Cholesterol-free [1, 8]: 1.281
- Complete [1, 9]: 1.25
- Cholesterol-free media + simvastatin (0.04 μM) [2, 4]: 0.8443
- Complete Media [2, 5]: 0.8399
- Difference ([2]; complete media minus cholesterol-free media + simvastatin (0.04 μM), […]): 0.00

SMILES: O=P(O)(O)C(O)(Cn1ccnc1)P(=O)(O)O [Zoledronic acid (monohydrate)]
- Difference [1, 7]: −0.23
- Cholesterol-free [1, 3]: 1.033
- Complete ([1]; NCI-H292 cells, complete media): 0.8069
- Cholesterol-free media + simvastatin (0.04 μM) [2, 21]: 0.7262
- Complete Media [2, 22]: 0.8945
- Difference [2, 17]: 0.17

SMILES: NS(=O)(=O)Cc1noc2ccccc12 [Zonisamide]
- Difference [1, 18]: −0.51
- Complete [1, 19]: 1.109
- Cholesterol-free media + simvastatin (0.04 μM) [2, 13]: 1.285
- Complete Media [2, 14]: 1.066
- Difference [2, 12]: −0.22

SMILES: COc1cc2c3cc1Oc1c(OC)c(OC)cc4c1[C@@H](Cc1ccc(O)c(c1)Oc1ccc(cc1)C[C@@H]3N(C)CC2)N(C)CC4 [berbamine, reference compound]
- Cholesterol-free ([1]; NCI-H292 cells, cholesterol-free media without statin, listed as Berbamine): 1.275
- Complete ([1]; NCI-H292 cells, complete media, listed as Berbamine): 0.9674
- Difference ([1]; complete vs cholesterol-free media, […], listed as Berbamine): −0.31
- Cholesterol-free media + simvastatin (0.04 μM) ([2]; NCI-H292 cells, FDA drug library screen, cholesterol-free media with simvastatin 0.04 μM, listed as Berbamine): 0.4924
- Complete Media ([2]; NCI-H292 cells, FDA drug library screen, complete media, listed as Berbamine): 1.667
- Difference ([2]; complete media minus cholesterol-free media + simvastatin, […], listed as Berbamine): 1.17

SMILES: COc1ccc2cc1Oc1ccc(cc1)C[C@H]1c3c(cc4c(c3Oc3cc5c(cc3OC)CCN(C)[C@@H]5C2)OCO4)CCN1C [cepharanthine, reference compound]
- Difference [1, 7]: 0.04
- Cholesterol-free [1, 8]: 1.12
- Complete [1, 9]: 1.159
- Cholesterol-free media + simvastatin (0.04 μM) [2, 21]: 0.1249
- Complete Media [2, 22]: 1.4
- Difference [2, 17]: 1.27

SMILES: O[C@H]1[C@H](O)[C@@H](O)[C@H](O)[C@@H](O)[C@H]1O [i-Inositol]
- Difference [1, 7]: −0.01
- Cholesterol-free [1, 8]: 1.553
- Complete [1, 9]: 1.54
- Cholesterol-free media + simvastatin (0.04 μM) [2, 4]: 0.9949
- Complete Media [2, 5]: 0.9333
- Difference [2, 6]: −0.06

SMILES: C[N+](C)(C)CCOP(=O)([O-])OC[C@H](O)CO [sn-Glycero-3-phosphocholine]
- Difference [1, 23]: −0.10
- Cholesterol-free [1, 24]: 0.9108
- Complete [1, 22]: 0.8124
- Cholesterol-free media + simvastatin (0.04 μM) [2, 10]: 0.9593
- Complete Media [2, 11]: 0.5999
- Difference [2, 12]: −0.36

SMILES: COc1ccc(/C=C/C(=O)Nc2ccccc2C(=O)O)cc1OC [trans-Tranilast]
- Difference [1, 20]: −0.10
- Complete [1, 22]: 0.8406
- Cholesterol-free media + simvastatin (0.04 μM) [2, 13]: 1.144
- Complete Media [2, 14]: 0.9085
- Difference ([2]; complete media vs cholesterol-free media + simvastatin (0.04 μM), […]): −0.24

SMILES: O=C(O)CCCCC1CCSS1 (stereo not drawn) [α-Lipoic Acid]
- Difference [1, 23]: −0.15
- Cholesterol-free [1, 24]: 1.192
- Complete [1, 22]: 1.044
- Cholesterol-free media + simvastatin (0.04 μM) [2, 21]: 1.116
- Complete Media [2, 22]: 1.004
- Difference [2, 12]: −0.11
